Measured values reported in patent US8791158B2, “Methods of treating meibomian gland dysfunction” (GTX, Inc., priority 2010, dated 2014).
Marks after values point to notes of the source that are not given here.

Columns and labels:
[1] = test system: acute orchiectomized (ORX) rabbit model; test: Palmitate:stearate ratios in tears, Meibomian glands and harderian glands, Example 4; type: in vivo; conditions: for Palmitate:stearate ratios in Meibomian glands / Palmitate:stearate ratios in harderian glands: ORX rabbits, topical 2.5 mg/kg once daily 14 d, mean
Excerpt: The goal of this study was to compare the effects of Compound 1 and Compound 2, two tissue selective SARMs with differing androgenic potential, in modulating tear composition in an acute orchiectomized (ORX) rabbit model.
Twenty New Zealand white rabbits weighing approximately 3 lbs were allowed to acclimate for two weeks before the start of the study Animals were weighed on day 0 of the study, randomized according to body weight and allotted to the following dose groups:
Surgeries for the study were staggered to limit the maximum number of surgeries per day to six. One animal from each group was entered into the study every day and either sham or orchiectomy was performed as described below Animals were premedicated with glycopyrrolate (0.02 mg/kg) and anesthesia was induced with a combination of ketamine (15 mg/kg): medetomidine (0.25 mg/kg). Anesthesia was maintained with isoflurane (1 liter/hr). ORX was performed using a scrotal incision. For the sham operated animals, the scrotal sac was incised and skin closed using tissue glue Animals were revived from anesthesia using atipamezole (1 mg/kg) SQ. Analgesia was provided with buprenorphine (0.05 mg/kg).
Immediately after the animals had recovered from anesthesia, they were dosed with the appropriate test articles as indicated above. Drug dosing was done once daily for 14 d. Blood samples were collected at 30, 60, 120, 240 and 1440 minutes after dose administration on day 11 for pharmacokinetic analyses. Plasma was separated for HPLC analysis of parent drug concentrations. Tears were collected using Schirmer tear strips (Alcon, Tex.) on day 0 before surgery and 24 hours after the last administration of drug (day 15). The tears were stored at −80° C. until shipment for analysis. Lipids were hydrolyzed, extracted from the Schirmer strips, derivatized, and subjected to GC-FID to evaluate the lipid composition. The samples were evaluated for the presence of 28 saturated and unsaturated fatty acids that included methyl caprate (C10:0), methyl laurate (C12:0), methyl 11-dodecenoate (C12:1), methyl myristate (C14:0), methyl myristoleate (C14:1), methyl palmitate (C16:0), methyl palmitoleate (C16:1), methyl stearate (C18:0), methyl oleate (C18:1), methyl vaccenate (C18:1), methyl linoleate (C18:2), methyl gamma linoleate (C18:3), methyl linoleate (C18:3), methyl arachidate (C20:0), methyl 11-eicosenoate (C20:1), methyl 11,14 eicosadinoate (C20:2), methyl 8,11,14 eicosatrienoate (C20:3), methyl eicosapentaenoate (C20:5), methyl behenate (C22:0), methyl erucate (C22:1), methyl 13,16 docosaenoate (C22:2), methyl docosatetraenoate (C22:4), methyl docosapentaenoate (C22:5), methyl docosahexaenoate (C22:6), methyl lignocerate (C24:0), and methyl nervonate (C24:1). Area under the curve for each individual peak was determined using the GC ChemStation software. To normalize for the tear content, the lipid composition was expressed as a ratio of the lipid that was most affected by castration (palmitate) to one which remained relatively constant (stearate).
At the end of the study, the animals were euthanatized. The left harderian and Meibomian glands were collected for lipid analysis and snap frozen using an ethanol:dry ice bath. Samples were stored at −80° C. until shipment for analysis. The right eyelids were embedded in OCT medium and shipped to Paragon Biosciences (Washington D.C.) for histology and Oil-red-O quantification of lipids. Images of three separate fields were taken from each eyelid at random and the amount of cells staining red in each field was scored using commercially available software. A scoring scheme was adopted with a scale of 0-4 to evaluate the staining intensities with 0=<1% cells stained, 1+ for 2-5% of cells stained, 2+=6-10% stain, 3+=11-20% staining, 4+ for >21% cells stained.

[2] = test system: orchiectomized (ORX) rabbits; test: Dose effect on palmitate:stearate ratio in tears, harderian and Meibomian glands, Example 5; type: in vivo, rabbit; conditions: for Palmitate:Stearate Ratio in Tears / Palmitate:stearate ratio in Meibomian gland / Palmitate:stearate ratio in harderian gland: ORX rabbits; for Palmitate:Stearate Ratio in Tears: day 15, mean; for Palmitate:stearate ratio in Meibomian gland / Palmitate:stearate ratio in harderian gland: mean; for Increase of lipid (palmitate:stearate) ratio in harderian glands: topical 1.25 mg/kg (highest dose tested); for Change in Meibomian gland lipids / Dose dependence of palmitate:stearate ratio in harderian glands / Dose dependence of palmitate:stearate ratio in tears: topical 0.625 and 1.25 mg/kg
Excerpt: The goal of this study was to determine the effect of dosage amounts of Compounds 1 and 2 on tear composition.
Thirty New Zealand white rabbits weighing approximately 3 lbs were allowed to acclimate for two weeks before the start of the study Animals were weighed on day 0 of the study, randomized according to body weight and allotted to the following orchiectomized (ORX) dose groups:
Surgeries for the study were staggered to limit the maximum number of surgeries per day to six. One animal from each group was entered into the study every day and castration was performed as described below. Animals were premedicated with glycopyrrolate (0.02 mg/kg) and anesthesia was induced with a combination of ketamine (15 mg/kg): medetomidine (0.25 mg/kg). Anesthesia was maintained with isoflurane (1 liter/hr). Orchiectomy was performed using a scrotal incision. Animals were reversed from anesthesia using atipamezole (1 mg/kg) SQ. Analgesia was provided with buprenorphine (0.05 mg/kg) SQ immediately after the animal's regained sternal recumbency.
Immediately after recovery from anesthesia, the animals were dosed with the appropriate test articles as indicated above. Drug dosing was performed once daily for 14 d. Blood samples were collected on day 11 of dosing at 0, 30, 60, 120, 240 and 1440 minutes post administration and to plasma separated for LCMS analysis of parent drug concentrations. Tears were collected using Schirmer tear strips (Alcon, Tex.) on day 0 before surgery and 24 hours after the last administration of drug (day 15). The tears were stored at −80° C. until shipment for lipid analysis. Lipids were hydrolyzed, extracted from the Schirmer strips, derivatized, and subjected to GC-FID to evaluate the lipid composition. The samples were evaluated for the presence of 28 saturated and unsaturated fatty acids that included methyl caprate (C10:0), methyl laurate (C12:0), methyl 11-dodecenoate (C12:1), methyl myri state (C14:0), methyl myristoleate (C14:1), methyl palmitate (C16:0), methyl palmitoleate (C16:1), methyl stearate (C18:0), methyl oleate (C18:1), methyl vaccenate (C18:1), methyl linoleate (C18:2), methyl gamma linoleate (C18:3), methyl linoleate (C18:3), methyl arachidate (C20:0), methyl 11-eicosenoate (C20:1), methyl 11,14 eicosadinoate (C20:2), methyl 8,11,14 eicosatrienoate (C20:3), methyl eicosapentaenoate (C20:5), methyl behenate (C22:0), methyl erucate (C22:1), methyl 13,16 docosaenoate (C22:2), methyl docosatetraenoate (C22:4), methyl docosapentaenoate (C22:5), methyl docosahexaenoate (C22:6), methyl lignocerate and (C24:0), methyl nervonate (C24:1). Area under the curve for each individual peak was determined using the GC ChemStation software. To normalize for the tear content, the lipid composition was expressed as a ratio of the lipid that was most affected by castration (palmitate) to one which remained relatively constant (stearate).
At the end of the study, the animals were euthanatized. The harderian and Meibomian glands were collected for lipid analysis and snap frozen using an ethanol: dry ice bath. Samples were stored at −80 C until ready to ship for analysis.
Lipids in rabbit tears are derived from secretions of the harderian and Meibomian glands. Lipid content in the glands was assayed using GCMS. […] The lipid ratio was increased by more than 2-fold by Compound 1 (1.25 mg/kg), while the effect of Compound 2 was even greater with an almost 3-fold increase in the lipid ratio seen at the highest dose tested (1.25 mg/kg).

C[C@](O)(COc1ccc(C#N)c(F)c1)C(=O)Nc1ccc(C#N)c(C(F)(F)F)c1 [Compound 2, (S)—N-(4-cyano-3-(trifluoromethyl)phenyl)-3-(4-cyano-3-fluorophenoxy)-2-hydroxy-2-methylpropanamide]
Palmitate:stearate ratios in Meibomian glands [1]: 2.82 | Palmitate:stearate ratios in harderian glands [1]: 7.76 | Change of palmitate:stearate ratio in Meibomian glands ([1]; topical 2.5 mg/kg): mild increase | Change of palmitate:stearate ratio in harderian glands compared to control animals ([1]; topical 2.5 mg/kg): significant increase | Increase of tear palmitate:stearate ratio over intact vehicle treated animals ([1]; topical 2.5 mg/kg): ~1.5 fold | Increase of tear palmitate:stearate ratio relative to ORX vehicle-treated animals ([1]; topical 2.5 mg/kg): approximately 2.5 times | Palmitate:Stearate Ratio in Tears ([2]; topical 0.625 mg/kg once daily 14 d): 2.67^a,b | Palmitate:stearate ratio in Meibomian gland ([2]; topical 0.625 mg/kg): 3.36 | Palmitate:stearate ratio in harderian gland ([2]; topical 0.625 mg/kg): 6.09^a,b | Palmitate:Stearate Ratio in Tears ([2]; topical 1.25 mg/kg once daily 14 d): 3.93^a,b | Palmitate:stearate ratio in Meibomian gland ([2]; topical 1.25 mg/kg): 3.31 | Palmitate:stearate ratio in harderian gland ([2]; topical 1.25 mg/kg): 5.30^a,b | Increase of lipid (palmitate:stearate) ratio in harderian glands [2]: ~3 fold | Change in Meibomian gland lipids [2]: No statistically significant change | Dose dependence of palmitate:stearate ratio in harderian glands [2]: dose dependent increase | Dose dependence of palmitate:stearate ratio in tears [2]: dose dependent increase

C[C@](O)(COc1ccc(C#N)cc1)C(=O)Nc1ccc(C#N)c(C(F)(F)F)c1 [Compound 1, (S)—N-(4-Cyano-3-(trifluoromethyl)phenyl)-3-(4-cyanophenoxy)-2-hydroxy-2-methylpropanamide]
Palmitate:stearate ratios in Meibomian glands [1]: 4.07^b | Palmitate:stearate ratios in harderian glands [1]: 5.1 | Change of palmitate:stearate ratio in Meibomian glands ([1]; topical 2.5 mg/kg): two fold increase | Change of palmitate:stearate ratio in harderian glands compared to control animals ([1]; topical 2.5 mg/kg): no change | Palmitate:stearate ratio in Meibomian gland ([2]; topical 0.625 mg/kg): 3.29 | Palmitate:stearate ratio in harderian gland ([2]; topical 0.625 mg/kg): 3.45^a,b | Palmitate:stearate ratio in Meibomian gland ([2]; topical 1.25 mg/kg): 3.68 | Palmitate:stearate ratio in harderian gland ([2]; topical 1.25 mg/kg): 4.87^a,b | Increase of lipid (palmitate:stearate) ratio in harderian glands [2]: more than 2 fold | Change in Meibomian gland lipids [2]: No statistically significant change | Dose dependence of palmitate:stearate ratio in harderian glands [2]: dose dependent increase | Dose dependence of palmitate:stearate ratio in tears [2]: no significant dose dependent changes
